Experimental data: paper PMC2788921 (Biochemistry, 2009)

Assays:
benzaldehyde lyase (BAL) = benzaldehyde lyase (BAL) (Pseudomonas fluorescens, UniProt P51853); assay: CD titration of purified BAL; assay type: binding
[1] = biological target: benzoylformate decarboxylase (BFDC) (Pseudomonas putida, UniProt P20906); assay: stopped-flow PDA transient kinetics; assay type: binding
benzoylformate decarboxylase (BFDC), sequence (P20906 whole entry): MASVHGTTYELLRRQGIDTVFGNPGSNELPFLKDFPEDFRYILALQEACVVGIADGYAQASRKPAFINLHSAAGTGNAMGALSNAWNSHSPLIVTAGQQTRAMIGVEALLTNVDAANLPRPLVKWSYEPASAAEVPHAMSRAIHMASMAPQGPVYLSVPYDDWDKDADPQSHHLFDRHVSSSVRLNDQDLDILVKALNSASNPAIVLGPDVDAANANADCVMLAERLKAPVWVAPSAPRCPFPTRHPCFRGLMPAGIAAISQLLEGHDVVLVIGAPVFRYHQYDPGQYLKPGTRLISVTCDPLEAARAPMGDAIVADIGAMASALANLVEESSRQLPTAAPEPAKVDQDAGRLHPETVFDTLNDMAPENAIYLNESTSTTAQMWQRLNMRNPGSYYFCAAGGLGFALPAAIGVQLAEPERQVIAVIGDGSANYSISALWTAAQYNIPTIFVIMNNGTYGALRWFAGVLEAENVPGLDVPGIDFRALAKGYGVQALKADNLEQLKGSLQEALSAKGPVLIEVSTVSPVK

benzaldehyde lyase (BAL), sequence (P51853 whole entry): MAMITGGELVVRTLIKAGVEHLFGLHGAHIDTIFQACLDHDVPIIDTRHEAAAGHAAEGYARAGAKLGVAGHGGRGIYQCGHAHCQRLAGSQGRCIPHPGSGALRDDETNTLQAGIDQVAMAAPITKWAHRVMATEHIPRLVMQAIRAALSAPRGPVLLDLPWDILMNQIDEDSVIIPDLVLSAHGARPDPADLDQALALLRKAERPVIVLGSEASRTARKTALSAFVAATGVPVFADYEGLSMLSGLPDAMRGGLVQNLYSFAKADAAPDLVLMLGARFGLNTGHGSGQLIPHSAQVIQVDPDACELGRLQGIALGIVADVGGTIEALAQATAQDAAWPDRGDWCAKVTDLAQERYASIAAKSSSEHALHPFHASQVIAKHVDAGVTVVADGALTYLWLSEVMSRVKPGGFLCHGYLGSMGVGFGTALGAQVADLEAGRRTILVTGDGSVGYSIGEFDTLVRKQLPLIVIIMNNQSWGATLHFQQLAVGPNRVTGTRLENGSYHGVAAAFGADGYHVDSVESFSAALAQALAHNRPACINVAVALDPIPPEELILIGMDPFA

Kd [1] [µM]	SMILES	Kd (benzaldehyde lyase (BAL)) [µM]
–	O=C/C=C/c1cccnc1 [PAA, (E)-3-(pyridin-3-yl)acrylaldehyde]	21.4 ± 1.98
340	O=C(O)C(=O)/C=C/c1cccnc1 [3-PKB, (E)-2-oxo-4-(pyridin-3-yl)but-3-enoic acid]	–
